Reference: the RepoRT retention time repository (doi:10.1016/j.jchromb.2020.122105)

Experiments:
Conditions in all cases: stereoisomer not certain
[1] = RP, Waters CORTECS T3, 100 × 2.1 mm, 2.7 µm, 0.2 mL/min, estimated dead time 1.1 min; A: water + 0.045% formic acid + 0.11% ammonium hydroxide, pH 7; B: methanol; gradient (min/%B) 0/5 5/5 25/95 25.1/100 35/100 35.1/5 45/5
[2] = RP, Waters ACQUITY UPLC BEH C18, 100 × 2.1 mm, 1.7 µm, 0.1 mL/min, estimated dead time 2.2 min; A: water + 0.1% formic acid, pH 3; B: methanol + 0.1% formic acid, pH 3; gradient (min/%B) 0/5 5/5 25/100 30/100 30.1/5 35/5
[3] = RP, Waters ACQUITY UPLC BEH C18, 100 × 2.1 mm, 1.7 µm, 0.1 mL/min, estimated dead time 2.2 min; A: water + 0.045% formic acid + 0.11% ammonium hydroxide, pH 7; B: methanol; gradient (min/%B) 0/5 5/5 25/95 25.1/100 35/100 35.1/5 45/5
[4] = RP, Thermo Scientific Hypercarb, 150 × 2.1 mm, 5 µm, 0.1 mL/min, estimated dead time 3.3 min; A: water + 0.1% formic acid, pH 3; B: methanol + 0.1% formic acid, pH 3; gradient (min/%B) 0/5 5/5 20/100 35/100 35.1/5 45/5
[5] = RP, Waters ACQUITY UPLC BEH C18, 100 × 2.1 mm, 1.7 µm, 0.2 mL/min, estimated dead time 1.1 min; A: water + 0.025% formic acid + 20 mM ammonium acetate + 0.055% ammonium hydroxide, pH 7; B: methanol; gradient (min/%B) 0/5 5/5 25/100 30/100 30.1/5 35/5
[6] = HILIC, Merck SeQuant ZIC-HILIC, 150 × 2.1 mm, 5 µm, 0.75 mL/min, estimated dead time 0.44 min; A: water + 0.1% acetic acid + 10 mM ammonium acetate, pH 4; B: 5% water + 95% acetonitrile + 0.1% acetic acid + 10 mM ammonium acetate, pH 4; gradient (min/%B) 0/95 5/95 20/57 25/57 30/95 40/95
[7] = RP, Waters CORTECS T3, 100 × 2.1 mm, 2.7 µm, 0.3 mL/min, estimated dead time 0.73 min; A: water + 0.1% formic acid, pH 3; B: methanol + 0.1% formic acid, pH 3; gradient (min/%B) 0/0 5/0 25/100 30/100 30.1/0 35/0
[8] = RP, Waters CORTECS T3, 100 × 2.1 mm, 2.7 µm, 0.15 mL/min, estimated dead time 1.5 min; A: water + 0.1% formic acid, pH 3; B: methanol + 0.1% formic acid, pH 3; gradient (min/%B) 0/0 1/0 6/5 30/100 35/100 35.1/0 40/0
[9] = RP, Waters CORTECS T3, 100 × 2.1 mm, 2.7 µm, 0.25 mL/min, estimated dead time 0.88 min; A: water + 0.1% formic acid, pH 3; B: methanol + 0.1% formic acid, pH 3; gradient (min/%B) 0/0 1/0 6/5 30/100 35/100 35.1/0 40/0
[10] = RP, Waters CORTECS T3, 100 × 2.1 mm, 2.7 µm, 0.3 mL/min, estimated dead time 0.73 min; A: water + 0.1% formic acid, pH 3; B: methanol + 0.1% formic acid, pH 3; gradient (min/%B) 0/0 1/0 6/5 30/100 35/100 35.1/0 40/0
[11] = RP, Waters CORTECS T3, 100 × 2.1 mm, 2.7 µm, 0.3 mL/min, estimated dead time 0.73 min; A: water + 0.1% formic acid, pH 3; B: methanol + 0.1% formic acid, pH 3; gradient (min/%B) 0/5 5/5 25/100 30/100 30.1/5 35/5

CCCCCCCCCCCCCC(=O)OCC(O)CO (racemic) [RAC-GLYCEROL 1-MYRISTATE]
LC retention time [1]: 25.4 min | LC retention time [2]: 28.2 min | LC retention time [3]: 29.1 min

NC1(C(=O)O)CC1 [1-AMINOCYCLOPROPANE-1-CARBOXYLATE]
LC retention time [4]: 4.48 min

C[n+]1cccc(C(N)=O)c1 [1-METHYLNICOTINAMIDE]
LC retention time [4]: 4.94 min | LC retention time [5]: 1.35 min

O=C(O)CCCC(=O)C(=O)O [2-OXOADIPATE]
LC retention time [6]: 12.9 min

OCC(O)c1ccc(O)c(O)c1 (configuration not stated) [3,4-DIHYDROXYPHENYL GLYCOL]
LC retention time [6]: 4.12 min

Nc1c(O)cccc1C(=O)CC(N)C(=O)O (configuration not stated) [3-HYDROXYKYNURENINE]
LC retention time [2]: 2.83 min

COc1cc(CCN)ccc1O [3-METHOXYTYRAMINE]
LC retention time [4]: 20.5 min | LC retention time [1]: 4.87 min | LC retention time [3]: 9.22 min

Cn1cncc1CCN [3-METHYLHISTAMINE]
LC retention time [4]: 4.64 min | LC retention time [1]: 1.73 min | LC retention time [3]: 3.44 min | LC retention time [5]: 1.81 min

NC(N)=NCCCC(=O)O [4-GUANIDINOBUTANOATE]
LC retention time [7]: 0.91 min | LC retention time [8]: 1.8 min | LC retention time [9]: 1.06 min | LC retention time [4]: 13 min | LC retention time [2]: 2.71 min | LC retention time [5]: 1.39 min | LC retention time [10]: 0.9 min

O=C1CCNC(=O)N1 [5,6-DIHYDROURACIL]
LC retention time [2]: 2.76 min

N[C@@H](Cc1c[nH]c2ccc(O)cc12)C(=O)O [5-HYDROXY-L-TRYPTOPHAN]
LC retention time [11]: 2.7 min

NCCCCN=C(N)N [AGMATINE]
LC retention time [1]: 1.58 min | LC retention time [3]: 3.67 min | LC retention time [5]: 1.44 min

NCCCNCCCN [BIS(3-AMINOPROPYL)AMINE]
LC retention time [4]: 41 min

C[N+](C)(C)CCO [CHOLINE]
LC retention time [5]: 1.35 min

COC1=C(OC)C(=O)C(CC=C(C)CCC=C(C)CCC=C(C)CCC=C(C)CCC=C(C)CCC=C(C)CCC=C(C)CCC=C(C)CCC=C(C)CCC=C(C)C)=C(C)C1=O [COENZYME Q10]
LC retention time [3]: 37.8 min

CN(CC(=O)O)C(=N)N [CREATINE]
LC retention time [5]: 1.35 min

CN1CC(=O)NC1=N [CREATININE]
LC retention time [9]: 1.06 min | LC retention time [4]: 4.94 min | LC retention time [5]: 1.39 min

Nc1ccnc(=O)[nH]1 [CYTOSINE]
LC retention time [9]: 1.06 min | LC retention time [4]: 13.9 min | LC retention time [5]: 1.44 min | LC retention time [10]: 0.9 min

OCCNCCO [DIETHANOLAMINE]
LC retention time [5]: 1.35 min

O=C(O)C(O)c1ccc(O)c(O)c1 (configuration not stated) [DIHYDROXYMANDELIC ACID]
LC retention time [6]: 4.4 min

NC(N)=NCC(=O)O [GUANIDINOACETATE]
LC retention time [4]: 5.04 min

O=C(O)CNC(=O)c1ccccc1 [HIPPURATE]
LC retention time [2]: 14.1 min

NCCc1cnc[nH]1 [HISTAMINE]
LC retention time [4]: 4.61 min | LC retention time [1]: 1.54 min | LC retention time [3]: 3.13 min | LC retention time [5]: 1.44 min

NC(CCS)C(=O)O (configuration not stated) [HOMOCYSTEINE]
LC retention time [4]: 14 min

NC(N)=NCCC[C@H](N)C(=O)O [L-ARGININE]
LC retention time [4]: 4.77 min

N[C@@H](CCSC[C@H](N)C(=O)O)C(=O)O [L-CYSTATHIONINE]
LC retention time [4]: 4.86 min

N[C@@H](CSSC[C@H](N)C(=O)O)C(=O)O [L-CYSTINE]
LC retention time [4]: 4.99 min

CS(=N)(=O)CCC(N)C(=O)O [L-METHIONINE SULFOXIMINE]
LC retention time [4]: 4.77 min
